Patent US10408843B2, “Compositions and methods for detecting S-nitrosylation and S-sulfinylation” (The Regents of the University of Michigan, priority 2013, dated 2019)

How the values were obtained:
[1] = type: physicochemical
Description: S-nitrosoglutathione (GSNO, Cayman) and sodium phenylsulfinate (Sigma-Aldrich) were used for rate-determination studies at four pH values: pH 1.0 (0.2 N HCl/KCl buffer), pH 4.0 (0.1 M Sodium acetate/Acetic Acid buffer), pH 7.0 (0.1 M potassium phosphate buffer) and pH 10.0 (0.1 M Sodium bicarbonate/Sodium hydroxide buffer). The purity of S-nitrosoglutathione was calculated as 94±1.3% by absorbance at 334 nm using the molar extinction coefficient of 900 M^−1 cm^−1. Assays were performed using a plate reader (Tecan Infinite F500) monitoring absorbance of 2 mM GSNO at 340 nm over a course of 90 minutes in the presence of varying concentrations of sodium phenylsulfinate. Additional experiments confirmed thiosulfonate stability for >5 hours at pH 1, 4, and 7, but hydrolysis at pH 10. GSNO was stable in 6 M urea/PBS for >1 hour. Absorbance data was imported into KaleidaGraph (version 4.02, Synergy Software), and logarithmically fit to the first order exponential decay. The Kobs was calculated for each phenylsulfinic acid concentration, and plotted to calculate the rate constant for the overall reaction.

[2] = biological target: T1, human DJ-1 (Cys106-SO2H) (Homo sapiens, UniProt Q99497); experiment: LC-MS analysis of DJ-1 conjugation with an S-nitrosothiol; type: biochemical; conditions: after iodoacetamide alkylation
T1 construct: 6His; made in house; host or cells: E. coli BL21
T1 sequence (Q99497 1-189): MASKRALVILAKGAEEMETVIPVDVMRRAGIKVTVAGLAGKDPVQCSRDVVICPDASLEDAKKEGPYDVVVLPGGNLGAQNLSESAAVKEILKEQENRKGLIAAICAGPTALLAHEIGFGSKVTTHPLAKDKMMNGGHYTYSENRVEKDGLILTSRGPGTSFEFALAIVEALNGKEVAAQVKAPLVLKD
Excerpt: (§1) FIG. 20A-C. S-nitrosothiol probes detect endogenous S-sulfinylation. (a) Direct conjugation of human DJ-1 (Cys106-SO2H) with N-acetyl-S-nitrosocysteine methyl ester. (b) MS/MS assignment of product ions from the S-sulfinylated peptide of human DJ-1, confirming direct thiosulfonate formation. (c) Gel-based analysis of S-sulfinylation in mammalian lysates with biotin-GSNO. Lysates are denatured and pre-alkylated with iodoacetamide.
It was next asked what would happen if the detection scheme was reversed, using S-nitrosothiol-linked probes to detect endogenous S-sulfinylation. Similar reactivity was recently reported using aryl-nitroso ligation to several sulfinic acid standards, including glutathione, to form a stable N-sulfonylbenzisoxazolone (see, e.g., Lo Conte, M. & Carroll, K. S. Angew Chem Int Ed Engl 51, 6502-5 (2012)). Despite such progress, there are no reported methods to selectively profile endogenous S-sulfinylation in complex proteomes. […]
Purified human GAPDH was diluted to 0.2 mg/mL in phosphate buffered saline (pH 7.3), and treated with 20 mM iodoacetamide for 30 minutes. […] Eluted peptides were analyzed using a Waters Synapt G2-S HDMS time-of-flight mass spectrometer in positive mode. […] MS data was searched using Waters Protein Lynx Global Server v3.0 using the exact mass calculated for the cysteine thiosulfonate modification.

[3] = test system: S-sulfinylated proteins in mammalian lysates; experiment: Gel-based analysis of S-sulfinylation with biotin-GSNO; type: biochemical; conditions: lysates in 6 M urea/PBS, pre-alkylated with iodoacetamide
Excerpt: as §1
It was next asked what would happen if the detection scheme was reversed, using S-nitrosothiol-linked probes to detect endogenous S-sulfinylation. Similar reactivity was recently reported using aryl-nitroso ligation to several sulfinic acid standards, including glutathione, to form a stable N-sulfonylbenzisoxazolone (see, e.g., Lo Conte, M. & Carroll, K. S. Angew Chem Int Ed Engl 51, 6502-5 (2012)). Despite such progress, there are no reported methods to selectively profile endogenous S-sulfinylation in complex proteomes. In order to test this approach, recombinant human DJ-1 was purified, a redox chaperone that spontaneously forms a stable sulfinic acid at Cys106 (see, e.g., Canet-Aviles, R. M. et al. Proc Natl Acad Sci USA 101, 9103-8 (2004)). After iodoacetamide alkylation of free thiols, N-acetyl-S-nitrosocysteine methyl ester was added to DJ-1, and processed for high-resolution LC-MS analysis (FIG. 20A and FIG. 21)). […]

SMILES: N[C@@H](CCC(=O)N[C@@H](CSN=O)C(=O)NCC(=O)O)C(=O)O [GSNO, S-nitrosoglutathione, reference compound]
- stability [1]: > 1 h

SMILES: COC(=O)[C@H](CSN=O)NC(C)=O [N-acetyl-S-nitrosocysteine methyl ester, (R)-methyl 2-acetamido-3-(nitrosothio)propanoate]
- thiosulfonate formation with DJ-1 [2]: confirmed thiosulfonate formation at Cys106-SO2H

SMILES: O=NSC[C@H](NC(=O)CCC(NC(=O)CCCC[C@@H]1SC[C@@H]2NC(=O)N[C@@H]21)C(=O)O)C(=O)NCC(=O)O (stereo partly drawn) [biotin-GSNO, 5-(((R)-1-((carboxymethyl)amino)-3-(nitrosothio)-1-oxopropan-2-yl)amino)-5-oxo-2-(5-((3aS,4S,6aR)-2-oxohexahydro-1H-thieno[3,4-d]imidazol-4-yl)pentanamido)pentanoic Acid]
- labeling of S-sulfinylated proteins [3]: distinct profile of putative S-sulfinylated proteins
